Test results taken from US10781182B2, “Compounds, process for obtaining the compounds, pharmaceutical composition, use of the compounds and method for treating psychiatric disorders and/or sleep disorders” (ACHÉ LABORATÓRIOS FARMACÊUTICOS S.A., priority 2016, dated 2020).

How the values were obtained:
[1] = Permeability in Caco-2 cells; type: in vitro ADME; conditions: human, Caco-2, pH 6.5, 37° C.
Method: Permeability tests were performed using Caco-2 cells, a colorectal epithelial adenocarcinoma cell line. These cells resemble intestinal epithelial cells in some aspects, such as the formation of a polarized monolayer, a well-defined brush border on the apical surface, and intercellular junctions.
The test is performed in both directions [apical to basolateral (A-B) and basolateral to apical (B-A)] through the cell monolayer, allowing an efflux ratio that provides an indicator as to whether a compound undergoes active efflux. Particle detection was performed with HPLC-MS/MS (mass spectrometry) according to the calculation of the peak area of the result. MS/MS was performed by combining two mass detectors in a single instrument.
A-B permeability was performed at pH 6.5/7.4 with incubation time of 0 and 60 minutes at 37° C. and B-A permeability was performed at pH 6.5/7.4 with incubation time of 0 and 40 minutes at 37° C.

[2] = Pharmacokinetics (PK) in rat, I.V. and oral; type: in vivo, Wistar-Han rats
Method: […] The study lasted for 2 weeks (including acclimation time and study), in which the route of administration was made by injection into the caudal vein and oral gavage. The treatment was carried out in a single dose: I.V. group with dose of 1 mg/kg and Oral group with dose of 10 mg/kg. […] Clinical observations were made twice a day (morning and afternoon) in the pre-dose at the 08 time points defined in the protocol. Blood collection was performed after euthanasia in the pre-dose animals at 08 defined time points and at 24 hours post-dose. The pharmacokinetic analysis parameters detected for Group IV were: half-life (t½), drug concentration at time zero (C0), last measurable plasma concentration (AUClast), area under the plasma concentration curve extrapolation percentage (AUC % ext), area under the plasma concentration curve extrapolation to infinity (AUCinf), volume of distribution (Vz), steady state volume of distribution (Vss), clearance (CL) and mean residence time (MRT). The parameters evaluated for the Oral group were: bioavailability (F %), maximum concentration reached (Cmax), time to reach maximum plasma concentration (Tmax), last measurable plasma concentration (AUClast), area under the plasma concentration curve extrapolation percentage (AUC % ext), area under the plasma concentration curve extrapolation to infinity (AUCinf), area under the plasma concentration curve extrapolation to infinity versus dose (AUCinf/Dose), half-Life (t½), and mean residence time (MRT).

[3] = test system: CYP2C9 and CYP2C19; conditions: cited from earlier work
[4] = biological target: P450 cytochrome 1A2 (CYP1A2) (Homo sapiens (Human), UniProt P05177); conditions: cited from earlier work
P450 cytochrome 1A2 (CYP1A2), sequence (P05177 whole entry): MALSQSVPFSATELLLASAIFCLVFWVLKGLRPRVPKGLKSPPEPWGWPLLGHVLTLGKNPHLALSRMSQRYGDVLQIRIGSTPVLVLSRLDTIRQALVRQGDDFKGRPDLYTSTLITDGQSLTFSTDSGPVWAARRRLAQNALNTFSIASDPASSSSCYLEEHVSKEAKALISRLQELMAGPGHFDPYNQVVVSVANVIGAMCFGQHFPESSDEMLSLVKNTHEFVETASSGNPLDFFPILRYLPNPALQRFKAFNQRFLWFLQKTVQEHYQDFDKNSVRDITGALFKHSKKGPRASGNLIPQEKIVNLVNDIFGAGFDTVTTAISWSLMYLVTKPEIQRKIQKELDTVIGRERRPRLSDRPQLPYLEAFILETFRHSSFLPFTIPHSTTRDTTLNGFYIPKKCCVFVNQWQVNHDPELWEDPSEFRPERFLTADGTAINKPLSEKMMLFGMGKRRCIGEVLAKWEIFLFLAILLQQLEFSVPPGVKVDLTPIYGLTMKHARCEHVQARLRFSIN

[5] = biological target: MT1 receptor (Homo sapiens (Human), UniProt P48039); assay: MT1 functional assay; conditions: MT1 and MT2 receptors
MT1 receptor, sequence (P48039 whole entry): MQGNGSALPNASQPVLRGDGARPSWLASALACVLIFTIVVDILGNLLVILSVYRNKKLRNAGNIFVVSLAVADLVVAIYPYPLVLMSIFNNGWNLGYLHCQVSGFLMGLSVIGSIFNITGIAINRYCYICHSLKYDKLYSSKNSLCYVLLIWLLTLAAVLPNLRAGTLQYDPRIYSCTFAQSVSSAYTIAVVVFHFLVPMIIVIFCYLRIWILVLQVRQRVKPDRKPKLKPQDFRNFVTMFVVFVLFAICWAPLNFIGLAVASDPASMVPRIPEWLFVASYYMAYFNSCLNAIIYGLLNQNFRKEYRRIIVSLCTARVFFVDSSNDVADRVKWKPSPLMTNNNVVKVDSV

[6] = Wistar-Han, plasma, intravenous 1 mg/kg

With `COc1ccc2cccc(CCNC(C)=O)c2c1` [IA2-76, agomelatine, reference compound] the Papp A→B at 60 min ([1]; apical to basolateral, 60 min, read-out: Permeability A-B (pH 6.5/7.4)) was 83.9 ×10⁻⁶ cm/s, the Papp B→A at 40 min ([1]; basolateral to apical, 40 min, read-out: Permeability B-A (pH 6.5/7.4)) was 48.5 ×10⁻⁶ cm/s and the clearance [2, 6] was 39.1 mL/min/kg. It also gave a half-life [2, 6] of 17.7 min, an AUC(0-t) ([2]; Wistar-Han, plasma, oral 10 mg/kg) of 1020 ng·h/mL and a bioavailability ([2]; Wistar-Han, plasma, oral 10 mg/kg vs intravenous 1 mg/kg, read-out: F (%) bioavailability) of 22.6%. For the same compound, the CL ([2]; intravenous 1 mg/kg) was 39.1 mL/min/kg, the T1/2 ([2]; intravenous 1 mg/kg) was 17.7 min and the AUClast ([2]; oral 10 mg/kg) was 1025 ng·h/mL. For the same compound, the “F (%) bioavailability” value ([2]; oral 10 mg/kg vs intravenous 1 mg/kg) was 22.6%, the “share metabolized by CYP2C9 and CYP2C19” value [3] was 10% and the “share metabolized in the liver by CYP1A2” value [4] was “Around 90%”. The “intrinsic activity (agonist, antagonist or inverse agonist)” value [5] was “agonist”.
